Experiments:
[1] = biological target: T1, human CYP1A1 (Homo sapiens, UniProt P04798); test: Competitive assay between fluorogenic substrate (7-ER) and non-fluorogenic substrate using caged-G6P; format: biochemical; conditions: benzopyrene 0.1 and 1 μM; 7-ER 0.1 to 1.5 μM
T1 construct: made in house; host or cells: E. coli DH5alpha, membrane fraction
T1 sequence (P04798 1-512): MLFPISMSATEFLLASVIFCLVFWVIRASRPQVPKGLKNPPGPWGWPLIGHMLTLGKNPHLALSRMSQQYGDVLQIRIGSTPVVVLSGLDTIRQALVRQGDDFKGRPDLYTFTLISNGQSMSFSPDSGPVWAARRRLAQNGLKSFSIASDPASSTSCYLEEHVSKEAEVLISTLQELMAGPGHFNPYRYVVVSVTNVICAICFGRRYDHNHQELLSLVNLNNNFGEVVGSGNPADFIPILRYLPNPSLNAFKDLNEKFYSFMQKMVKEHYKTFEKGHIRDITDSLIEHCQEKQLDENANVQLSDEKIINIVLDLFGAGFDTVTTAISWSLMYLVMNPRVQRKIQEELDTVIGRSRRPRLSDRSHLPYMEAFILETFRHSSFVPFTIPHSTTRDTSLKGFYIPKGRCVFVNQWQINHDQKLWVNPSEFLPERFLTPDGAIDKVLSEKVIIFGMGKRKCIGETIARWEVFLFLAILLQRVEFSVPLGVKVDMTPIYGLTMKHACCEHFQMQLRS
Description: A competitive assay between a fluorogenic substrate (7-ER) and a non-fluorogenic substrate (benzopyrene) was conducted using caged-G6P. An aqueous solution obtained by mixing the following components was used as the reaction liquid: 50 μL of 1 M potassium phosphate buffer solution, 30 μL of 5 mM caged-G6P, 2.89 μL of 69.3 U/mL glucose-6-phosphate […], 15 μL of 100 mM magnesium chloride, 1 μL of 5 mM NADP aqueous solution, 10.25 μL of P450 membrane fractions (human CYP1A1), 5 μL of 0.1 M dithiothreitol, and 379.61 μL of ultrapure water. The 7-ER concentration was varied from 0.1 μM to 1.5 μM. The benzopyrene concentrations were 0.1 μM and 1 μM. After UV light irradiation, incubation was performed for 30 minutes to carry out the P450 enzymatic reaction. Thereafter, 25 μL of 30% trichloroacetic acid was added thereto to terminate the enzymatic reaction. By adding 500 μL of chloroform to the reaction liquid and stirring the mixture for 1 minute, the […] (7HR) generated by the reaction was extracted in chloroform. […] After centrifuging for 1 minute, the […] was transferred to a cuvette, and the fluorescence spectra thereof were measured under the following conditions. Excitation wavelength: 366 nm, fluorescence wavelength: 380 to 600 nm. The maximum fluorescence was used to quantify the 7HR. […]

[2] = biological target: T1, human CYP1A1; test: Substrate metabolic activity on immobilized P450/oxygen sensor vertically integrated chip (fluorescence response of oxygen sensor); format: in vitro ADME; conditions: 0.5 mM chlortoluron
Description: A ruthenium complex (Ru(dpp)3Cl2) doped sol solution was prepared as described in Anal. Chem. 75 (2003) 2407-2413 with small modifications as follows. TEOS (0.29 mL) was mixed with 0.612 mL of octyl-triEOS, 0.625 mL of ethanol, and 0.2 mL of 0.1 M HCl by stirring for 1 hour at room temperature. Then, 1.725 mL of ethanol was added to the solution to dilute the sol in order to improve the quality of the oxygen sensing film to be ultimately formed. The solution was further stirred for 1 hour. To prepare an Ru(dpp)3Cl2 doped sol, 100 μL of 2 mM Ru(dpp)3Cl2 in ethanol was mixed with 300 μL of the above-mentioned sol solution. This solution was capped and stirred for 30 min, and 10 μL thereof was pipetted into each well of the microplate. The microplate was stored in the dark at room temperature for gelling and aging for 6 days. In order to increase the hydrophilicity of the surface of the oxygen sensor to improve the attachment with hydrogel, the surface of the microarrays was modified with poly (vinyl acetate) (PVAC).
Agarose was dissolved in deionized water to form a 1.3% (w/w) solution at 60° C. This solution was cooled to about 38° C. […] The microarrays were kept in a refrigerator at 4° C. until use.
TEOS sol was prepared by mixing 0.5 mL of TEOS, 0.25 mL of deionized water, and 12.5 μL of 0.1 M HCl and stirring for 3 hours to form a homogeneous sol. The sol was diluted four times with deionized water. […]
In order to measure the substrate metabolic activities using an immobilized P450/oxygen sensor vertically integrated chip (i.e., a chip comprising an immobilized P450 and an oxygen sensor vertically integrated therein), a study was conducted using immobilized human CYP1A1 as the P450 and chlortoluron (a herbicide) as a substrate. […] After the addition of the substrate solution into the microarrays, the microplate was quickly placed onto the platform of a microplate reader for the fluorescence measurement. Fluorescence intensity was recorded every 5 min for 3 hours.

[3] = biological target: T2, CYP3A5 (Homo sapiens, UniProt P20815); format: in vitro ADME
T2 construct: made in house; host or cells: E. coli membrane fraction (inferred from the pCW negative control and the general expression paragraph)
T2 sequence (P20815 whole entry): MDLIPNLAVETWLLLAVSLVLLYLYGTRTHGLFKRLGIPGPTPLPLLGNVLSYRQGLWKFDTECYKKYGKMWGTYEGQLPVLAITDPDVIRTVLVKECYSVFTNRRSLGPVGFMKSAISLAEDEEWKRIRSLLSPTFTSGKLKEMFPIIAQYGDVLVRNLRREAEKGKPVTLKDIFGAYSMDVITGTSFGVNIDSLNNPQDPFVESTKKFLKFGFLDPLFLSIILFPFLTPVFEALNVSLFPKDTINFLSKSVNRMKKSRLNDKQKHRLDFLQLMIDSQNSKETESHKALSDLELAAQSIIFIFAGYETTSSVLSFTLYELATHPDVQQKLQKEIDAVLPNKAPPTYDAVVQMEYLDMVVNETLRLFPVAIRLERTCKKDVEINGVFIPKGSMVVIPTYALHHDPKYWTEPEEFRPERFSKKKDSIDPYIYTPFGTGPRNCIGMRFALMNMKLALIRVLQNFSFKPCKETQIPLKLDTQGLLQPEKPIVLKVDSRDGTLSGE
Description: Using a 96-well microplate, the activity of various human P450 molecular species in oxygen sensor/immobilized P450 toward capsaicin was evaluated. The response to a solution with a substrate was compared to the response to a solution without a substrate and the activity of each molecular species was standardized. CYP2C9, CYP1A2, CYP2D6, CYP3A4, CYP2B6, CYP2C19(1A,1B), CYP2E1, CYP1A1, CYP2C8, CYP2W1, CYP4X1, CYP17A1, CYP27A1, CYP51A1, CYP2A6, CYP2A13, CYP1B1, CYP2C18, CYP2J2, CYP3A5, CYP2R1 and CYP2B6 were used as the P450. Furthermore, a membrane fraction (pCW) derived from E. coli was used as a negative control without human P450. […] The longitudinal axis of FIG. 11 indicates the value obtained by dividing the value of the response with a substrate by the value of the response without a substrate (background oxygen consumption) and standardizing the obtained value. As is clear from the figure, various molecular species show activity toward each compound. […] This also indicates the possibility that activities of human P450 toward pharmaceutical compounds and like compounds can be detected in a parallel manner.

SMILES: c1ccc2c(c1)c1cccc3ccc4cccc2c4c31 [benzopyrene]
- mode of inhibition of 7-ER metabolism (effect on initial reaction velocity) [1]: noncompetitive inhibitor

SMILES: Cc1ccc(NC(=O)N(C)C)cc1Cl [chlortoluron]
- change in fluorescence intensity of the oxygen sensing layer (oxygen consumption due to metabolic reaction) ([2]; P450 encapsulated in Ludox silica gel): only a limited increase
- change in fluorescence intensity of the oxygen sensing layer (oxygen consumption due to metabolic reaction) ([2]; P450 encapsulated in TEOS silica gel): no significant fluorescence increase
- change in fluorescence intensity of the oxygen sensing layer (oxygen consumption due to metabolic reaction) ([2]; P450 encapsulated in agarose gel, versus NADPH solution without substrate): significantly increased

SMILES: COc1cc(CNC(=O)CCCC/C=C/C(C)C)ccc1O [capsaicin]
- oxygen sensor response normalized by the response toward a solution without a substrate (peak height, FIG. 11) [3]: particularly high
